Positions count from the first letter of the chain named.
Experiments:
purified BLT2 receptor = target: purified BLT2 receptor; parameters: method as in PMID 21688157; settings: purified BLT2 associated with amphipols in solution, in vitro; cited from earlier work
BLT2 = target: BLT2; parameters: method as in PMID 10934230; settings: cited from earlier work
[1] = system: BLT1 (residue R156 in BLT1 mutated to alanine); parameters: method as in PMID 17237498; settings: in words; cited from earlier work
BLT1 = target: BLT1; parameters: method as in PMID 10934230; settings: membrane fractions, BLT1 transfected HEK 293 cells; in cellulo; read-out: equilibrium dissociation constant (Kd); cited from earlier work
BLT2 R270^7.35A = target: T1, BLT2 R270^7.35A (Homo sapiens, UniProt Q9NPC1, R270A); test: Gi protein activation catalyzed by BLT2 mutant; assay type: biochemical; settings: R270 mutation compared to wild-type, in words
T1 construct: made in house
T1 sequence (Q9NPC1 1-358 R270A): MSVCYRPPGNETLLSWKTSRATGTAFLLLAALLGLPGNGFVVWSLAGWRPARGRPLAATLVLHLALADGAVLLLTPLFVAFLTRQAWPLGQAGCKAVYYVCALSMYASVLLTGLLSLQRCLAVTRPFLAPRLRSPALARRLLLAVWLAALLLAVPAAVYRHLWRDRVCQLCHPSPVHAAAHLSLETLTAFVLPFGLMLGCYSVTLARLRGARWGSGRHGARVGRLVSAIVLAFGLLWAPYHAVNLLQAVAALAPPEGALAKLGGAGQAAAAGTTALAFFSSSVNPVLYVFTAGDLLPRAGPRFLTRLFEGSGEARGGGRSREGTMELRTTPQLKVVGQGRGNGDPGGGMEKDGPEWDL
Description: (§1) All mutations were introduced in the wild-type BLT2 receptor by PCR-mediated mutagenesis using the QuickChange multisite-directed mutagenesis kit (Stratagene) and the wild-type BLT2 construct as a template. Mutations were confirmed by nucleotide sequencing.
(§2) Gαi2 and Gβ1γ2 were prepared as previously described. Briefly, agonist-dependent functional coupling of the purified receptor to Gαi2β1γ2 was assessed through the rate of GTPγS binding at increasing agonist concentrations determined by monitoring the relative increase in the intrinsic fluorescence ( λexcitation=300nm , λemission=345nm ) of Gαi2 (200 nM of purified G protein) in the presence of BLT2 (20 nM) in buffer containing 10 mM MOPS, pH 7.2, 130 mM NaCl, and 2 mM MgCl2 at 15 °C after the addition of 10 μM GTPγS. The data were normalized to the fluorescence maximum obtained in the presence of saturating concentrations in 12–HHT (10 μM).

BLT2 S174^ECL2A = target: T2, BLT2 S174^ECL2A (Homo sapiens, UniProt Q9NPC1, S174A); test: Gi protein activation catalyzed by BLT2 mutant; assay type: biochemical; settings: S174 mutation compared to wild-type, in words
T2 construct: made in house
T2 sequence (Q9NPC1 1-358 S174A): T1 sequence (Q9NPC1 1-358 R270A) with S174A, A270R
Description: as §1, §2

effect of the mutation on ligand binding (BLT2 R270^7.35A): does not affect the binding
effect of the mutation on ligand binding (BLT2 S174^ECL2A): does not affect the binding
Structure (SMILES): CCCCC/C=C\C[C@@H](O)/C=C/C=C/C=C\[C@@H](O)CCCC(=O)O [LTB4, leukotriene B4]
Kd (purified BLT2 receptor): ~200 nM
Kd (BLT2; membrane fractions, BLT2 transfected HEK 293 cells, in cellulo, read-out: equilibrium dissociation constant (Kd)): ~20 nM
Kd weaker in the case of BLT2 compared to BLT1 (BLT2; transfected HEK 293 cells): 20 fold
effect of the mutation on LTB4 binding [1]: complete loss of LTB4 binding
Kd (BLT1): ~1 nM

Source: PMC7021728, “Structure of the agonist 12–HHT in its BLT2 receptor-bound state” (Scientific Reports, 2020)
